# Source: US20160281050A1, “METHODS FOR TREATING A CULTURE OF HAEMATOCOCCUS PLUVIALIS FOR CONTAMINATION USING SALT AND HYDROGEN PEROXIDE” (HELIAE DEVELOPMENT LLC, priority 2015, published 2016)
# Where two headings read alike, the source gives them in different places.
# How the values were obtained:
# [1] = tested on: Green swimmer cells of Haematococcus pluvialis (Strain 2)
# Experimental: The calculated concentrations of the hydrogen peroxide doses tested were 0.0105, 0.0140, 0.0175, 0.0210, and 0.0245 mL/L. The amount of cell lysis was quantified using visual observation under a microscope after 24, 48, and 72 hours.
# [2] = dosed 0.015 mL/L; carboy and open raceway pond samples
# [3] = tested on: Haematococcus pluvialis (Strain 2); experiment: % lysis and culture dry weight in flasks (Example 10);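 further: flask cultures run in duplicate, with duplicate untreated flasks serving as controls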
# Source text: (§1) Culture samples of Haematococcus pluvialis (Strain 2) were collected on the second day of the culture from open raceway bioreactor #2430 operating in conditions: reactor volume of 170,000 L; Daily PAR not measured; pH of 7.3; and paddlewheel speed of 70. The culture samples were distributed into flasks for culturing, consisting of duplicate untreated controls and duplicate treatments. […] Samples were taken from the flask cultures daily to quantify % lysis and % chytrid infection and cell dry weight was quantified every other day for a duration of 11 days.
# [4] = 0.0105 mL/L 1 time per day for 3 d then every other day, day 0
# [5] = 0.0105 mL/L 1 time per day for 3 d then every other day, day 3
# [6] = 0.0105 mL/L 1 time per day for 3 d then every other day, day 4
# [7] = 0.0105 mL/L 1 time per day for 3 d then every other day, day 5
# [8] = 0.0105 mL/L 1 time per day for 3 d then every other day, day 6
# [9] = 0.0105 mL/L 1 time per day for 3 d then every other day, day 7
# [10] = 0.0105 mL/L 1 time per day for 3 d then every other day, day 8
# [11] = 0.0105 mL/L 1 time per day for 3 d then every other day, day 9
# [12] = 0.0105 mL/L 1 time per day for 3 d then every other day, day 10
# [13] = 0.0105 mL/L 1 time per day, day 0
# Source text for chytrids: as §1
substance,measurement,setting,value
hydrogen peroxide [H2O2],% Cell lysis (±1SE),"[1]; 0.0105 mL/L three times per day, 24 h",3.3% ± 1.7%
same,% Cell lysis (±1SE),"[1]; 0.0105 mL/L three times per day, 48 h",5.0% ± 1.7%
same,% Cell lysis (±1SE),"[1]; 0.0105 mL/L three times per day, 72 h",3.3% ± 0.0%
same,cell lysis level,"[1]; 0.0105 mL/L, for at least 72 hours",below 10%
same,% Cell lysis (±1SE),"[1]; 0.0140 mL/L three times per day, 24 h",4.2% ± 0.8%
same,% Cell lysis (±1SE),"[1]; 0.0140 mL/L three times per day, 48 h",5.8% ± 2.5%
same,% Cell lysis (±1SE),"[1]; 0.0140 mL/L three times per day, 72 h",9.2% ± 4.2%
same,% Cell lysis (±1SE),"[1]; 0.0175 mL/L three times per day, 24 h",2.5% ± 0.8%
same,% Cell lysis (±1SE),"[1]; 0.0175 mL/L three times per day, 48 h",9.2% ± 2.5%
same,% Cell lysis (±1SE),"[1]; 0.0175 mL/L three times per day, 72 h",13.3% ± 3.3%
same,% Cell lysis (±1SE),"[1]; 0.0210 mL/L three times per day, 24 h",4.2% ± 2.5%
same,% Cell lysis (±1SE),"[1]; 0.0210 mL/L three times per day, 48 h",6.7% ± 1.7%
same,% Cell lysis (±1SE),"[1]; 0.0210 mL/L three times per day, 72 h",20.0% ± 3.3%
same,cell lysis level,"[1]; 0.0210 mL/L, for 48 hours",below 10%
same,% Cell lysis (±1SE),"[1]; 0.0245 mL/L three times per day, 24 h",15.0% ± 0.0%
same,% Cell lysis (±1SE),"[1]; 0.0245 mL/L three times per day, 48 h",22.5% ± 0.8%
same,% Cell lysis (±1SE),"[1]; 0.0245 mL/L three times per day, 72 h",27.5% ± 2.5%
same,% Chytrid infection,chytrids; [4],0.0 ± 0.0%
same,% Chytrid infection,chytrids; [5],0.0 ± 0.0%
same,% Chytrid infection,chytrids; [6],0.8 ± 1.2%
same,% Chytrid infection,chytrids; [7],5.0 ± 2.4%
same,% Chytrid infection,chytrids; [8],2.5 ± 1.2%
same,% Chytrid infection,chytrids; [9],0.0 ± 0.0%
same,% Chytrid infection,chytrids; [10],0.0 ± 0.0%
same,% Chytrid infection,chytrids; [11],2.5 ± 3.5%
same,% Chytrid infection,chytrids; [12],1.7 ± 2.4%
same,% Chytrid infection,chytrids; [13],0.0 ± 0.0%
same,% Chytrid infection,"chytrids; 0.0105 mL/L 1 time per day, day 3",0.0 ± 0.0%
same,% Chytrid infection,"chytrids; 0.0105 mL/L 1 time per day, day 4",0.8 ± 1.2%
same,% Chytrid infection,"chytrids; 0.0105 mL/L 1 time per day, day 5",0.8 ± 1.2%
same,% Chytrid infection,"chytrids; 0.0105 mL/L 1 time per day, day 6",1.7 ± 2.4%
same,% Chytrid infection,"chytrids; 0.0105 mL/L 1 time per day, day 7",3.3 ± 0.0%
same,% Chytrid infection,"chytrids; 0.0105 mL/L 1 time per day, day 8",0.0 ± 0.0%
same,% Chytrid infection,"chytrids; 0.0105 mL/L 1 time per day, day 9",0.8 ± 1.2%
same,% Chytrid infection,"chytrids; 0.0105 mL/L 1 time per day, day 10",0.0 ± 0.0%
same,% Chytrid infection,"chytrids; 0.0140 mL/L 1 time per day for 3 d then every other day, day 0",0.0 ± 0.0%
same,% Chytrid infection,"chytrids; 0.0140 mL/L 1 time per day for 3 d then every other day, day 3",0.0 ± 0.0%
same,% Chytrid infection,"chytrids; 0.0140 mL/L 1 time per day for 3 d then every other day, day 4",0.0 ± 0.0%
same,% Chytrid infection,"chytrids; 0.0140 mL/L 1 time per day for 3 d then every other day, day 5",0.0 ± 0.0%
same,% Chytrid infection,"chytrids; 0.0140 mL/L 1 time per day for 3 d then every other day, day 6",1.7 ± 2.4%
same,% Chytrid infection,"chytrids; 0.0140 mL/L 1 time per day for 3 d then every other day, day 7",0.0 ± 0.0%
same,% Chytrid infection,"chytrids; 0.0140 mL/L 1 time per day for 3 d then every other day, day 8",0.8 ± 1.2%
same,% Chytrid infection,"chytrids; 0.0140 mL/L 1 time per day for 3 d then every other day, day 9",0.0 ± 0.0%
same,% Chytrid infection,"chytrids; 0.0140 mL/L 1 time per day for 3 d then every other day, day 10",0.0 ± 0.0%
same,% Chytrid infection,"chytrids; 0.0140 mL/L 1 time per day, day 0",0.0 ± 0.0%
same,% Chytrid infection,"chytrids; 0.0140 mL/L 1 time per day, day 3",0.0 ± 0.0%
same,% Chytrid infection,"chytrids; 0.0140 mL/L 1 time per day, day 4",0.0 ± 0.0%
same,% Chytrid infection,"chytrids; 0.0140 mL/L 1 time per day, day 6",0.0 ± 0.0%
same,% Chytrid infection,"chytrids; 0.0140 mL/L 1 time per day, day 7",1.7 ± 2.4%
same,% Chytrid infection,"chytrids; 0.0140 mL/L 1 time per day, day 8",0.8 ± 1.2%
same,% Chytrid infection,"chytrids; 0.0140 mL/L 1 time per day, day 9",0.8 ± 1.2%
same,% Chytrid infection,"chytrids; 0.0140 mL/L 1 time per day, day 10",0.0 ± 0.0%
same,% Chytrid infection,"chytrids; 0.0175 mL/L 1 time per day for 2 d then every other, day 0",0.0 ± 0.0%
same,% Chytrid infection,"chytrids; 0.0175 mL/L 1 time per day for 2 d then every other, day 3",0.0 ± 0.0%
same,% Chytrid infection,"chytrids; 0.0175 mL/L 1 time per day for 2 d then every other, day 4",0.0 ± 0.0%
same,% Chytrid infection,"chytrids; 0.0175 mL/L 1 time per day for 2 d then every other, day 5",0.0 ± 0.0%
same,% Chytrid infection,"chytrids; 0.0175 mL/L 1 time per day for 2 d then every other, day 6",0.8 ± 1.2%
same,chytrid infection,chytrids; all treated flasks,under 10%
same,time to concentration below detectable limits,[2],120 min
same,time to concentration below level expected to be effective against uniflagellates (calculated concentration 0.0075 mL/L),[2],30 min
same,% Lysis,[3]; [4],0.8 ± 2.0%
same,% Lysis,[3]; [5],0.0 ± 0.0%
same,% Lysis,[3]; [6],1.7 ± 0.0%
same,% Lysis,[3]; [7],1.7 ± 2.4%
same,% Lysis,[3]; [8],3.3 ± 4.7%
same,% Lysis,[3]; [9],0.0 ± 0.0%
same,% Lysis,[3]; [10],0.8 ± 1.2%
same,% Lysis,[3]; [11],0.8 ± 1.2%
same,% Lysis,[3]; [12],0.8 ± 1.2%
same,% Lysis,[3]; [13],0.8 ± 2.0%
